Test results: patent US20120225061A1, “TETRASUBSTITUTED CYCLOHEXYL COMPOUNDS AS KINASE INHIBITORS” (priority 2011, published 2012)

Legend:
[1] = biological target: Pim3 kinase (Homo sapiens, UniProt Q86V86); assay: Pim3 AlphaScreen assay (high ATP)
Procedure: (§1) The activity of Pim 1, Pim 2, & Pim 3 is measured using a homogeneous bead based system quantifying the amount of phosphorylated peptide substrate resulting from kinase-catalyzed phosphoryl transfer to a peptide substrate. Compounds to be tested are dissolved in 100% DMSO and directly distributed to a white 384-well plate at 0.25 μl per well. […] This is followed by the addition of 5 μl/well of Pim 1, Pim 2 or Pim 3 kinase in assay buffer (concentrations described below). Final assay concentrations (described below) are in 2.5% DMSO. The reactions are performed for ˜2 hours, then stopped by the addition of 10 μl of 0.75 μg/ml anti-phospho Ser/Thr antibody (Cell Signaling), 10 μg/ml Protein A AlphaScreen beads (Perkin Elmer), and 10 μg/ml streptavidin coated AlphaScreen beads in stop/detection buffer (50 mM EDTA, 95 mM Tris, pH=7.5, 0.01% Tween-20). The stopped reactions are incubated overnight in the dark. The phosphorylated peptide is detected via an oxygen anion initiated chemiluminescence/fluorescence cascade using the Envision plate reader (Perkin Elmer).

[2] = biological target: Pim1 kinase (Homo sapiens, UniProt P11309); assay: Pim1 AlphaScreen assay (high ATP)
Procedure: as §1

[3] = system: KMS11 (human myeloma cell line); assay: Cell proliferation assay (CellTiter-Glo) in KMS11 cells; assay type: cell-based; details: KMS-11, 72 h, Table 5, 3 days, read-out: KMS11-luc EC50
Procedure: KMS11 (human myeloma cell line), were cultured in IMDM supplemented with 10% FBS, sodium pyruvate and antibiotics. Cells were plated in the same medium at a density of 2000 cells per well into 96 well tissue culture plates, with outside wells vacant, on the day of assay.
Test compounds supplied in DMSO were diluted into DMSO at 500 times the desired final concentrations before dilution into culture media to 2 times final concentrations.
After 3 days plates were equilibrated to room temperature and equal volume of CellTiter-Glow Reagent (Promega) was added to the culture wells. The plates were agitated briefly and luminescent signal was measured with luminometer.

[4] = biological target: Pim2 kinase (Homo sapiens, UniProt Q9P1W9); assay: Pim2 AlphaScreen assay (high ATP)
Chain of Pim2 kinase (Q9P1W9 whole entry): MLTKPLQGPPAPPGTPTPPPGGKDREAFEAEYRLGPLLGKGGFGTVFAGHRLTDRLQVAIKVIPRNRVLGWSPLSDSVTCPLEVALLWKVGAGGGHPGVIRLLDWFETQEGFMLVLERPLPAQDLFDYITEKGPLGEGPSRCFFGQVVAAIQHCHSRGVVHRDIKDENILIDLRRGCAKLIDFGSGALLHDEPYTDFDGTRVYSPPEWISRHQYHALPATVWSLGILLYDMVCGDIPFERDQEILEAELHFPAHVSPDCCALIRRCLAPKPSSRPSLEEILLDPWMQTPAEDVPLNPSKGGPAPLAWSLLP
Procedure: as §1

Chain of Pim1 kinase (P11309 whole entry): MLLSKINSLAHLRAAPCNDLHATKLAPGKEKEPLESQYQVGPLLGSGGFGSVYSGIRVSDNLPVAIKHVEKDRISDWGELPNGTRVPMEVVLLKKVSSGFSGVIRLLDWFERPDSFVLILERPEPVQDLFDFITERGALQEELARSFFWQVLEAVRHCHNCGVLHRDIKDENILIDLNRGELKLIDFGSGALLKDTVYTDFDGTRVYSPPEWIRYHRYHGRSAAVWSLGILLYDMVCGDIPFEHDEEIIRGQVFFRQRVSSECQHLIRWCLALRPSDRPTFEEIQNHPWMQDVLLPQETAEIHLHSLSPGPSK

Row | Compound | IC50 [1] | IC50 [2] | EC50 [3] | IC50 [4]
1 | C[C@H]1C[C@@H](c2ccncc2NC(=O)c2ccc(F)c(-c3c(F)ccc(OCCO)c3F)n2)C[C@@H](N)[C@]1(C)O [Example 3, N-(4-((1R,3R,4R,5S)-3-amino-4-hydroxy-4,5-dimethylcyclohexyl)pyridin-3-yl)-6-(2,6-difluoro-3-(2-hydroxyethoxy)phenyl)-5-fluoropicolinamide] | 1.94 nM | 0.1 nM | 126 nM | 10.6 nM
2 | COc1cc(F)c(-c2nc(C(=O)Nc3cnccc3[C@H]3C[C@@H](O)[C@](C)(O)[C@@H](C)C3)ccc2F)c(F)c1 [Example 22, 6-(2,6-difluoro-4-methoxyphenyl)-N-(4-((1R,3R,4R,5S)-3,4-dihydroxy-4,5-dimethylcyclohexyl)pyridin-3-yl)-5-fluoropicolinamide] | 39.5 nM | 0.85 nM | 382 nM | 201 nM
3 | Cc1noc(C)c1-c1cc(F)c(-c2nc(C(=O)Nc3cnccc3[C@H]3C[C@@H](N)[C@](C)(O)[C@@H](C)C3)ccc2F)c(F)c1 [Example 94, N-(4-((1R,3R,4R,5S)-3-amino-4-hydroxy-4,5-dimethylcyclohexyl)pyridin-3-yl)-6-(4-(3,5-dimethylisoxazol-4-yl)-2,6-difluorophenyl)-5-fluoropicolinamide] | 47.8 nM | 0.3 nM | 3230 nM | 114 nM
4 | C[C@H]1C[C@@H](c2ccncc2NC(=O)c2ccc(F)c(-c3c(F)cc(C(C)(C)C(=O)O)cc3F)n2)C[C@@H](N)[C@]1(C)O [Example 103, 2-(4-(6-(4-((1R,3R,4R,5S)-3-amino-4-hydroxy-4,5-dimethylcyclohexyl)pyridin-3-ylcarbamoyl)-3-fluoropyridin-2-yl)-3,5-difluorophenyl)-2-methylpropanoic acid] | 58.9 nM | 1.43 nM | > 10000 nM | 14.1 nM
5 | C[C@H]1C[C@@H](c2ccncc2NC(=O)c2nc(-c3c(F)cc(C4(O)CCOCC4)cc3F)sc2N)C[C@@H](N)[C@]1(C)O [Example 83, 5-amino-N-(4-((1R,3R,4R,5S)-3-amino-4-hydroxy-4,5-dimethylcyclohexyl)pyridin-3-yl)-2-(2,6-difluoro-4-(4-hydroxytetrahydro-2H-pyran-4-yl)phenyl)thiazole-4-carboxamide] | 0.71 nM | 0.03 nM | 9300 nM | 3.71 nM
6 | C[C@H]1C[C@@H](c2ccncc2NC(=O)c2ccc(F)c(-c3c(F)cc(OCCO)cc3F)n2)C[C@@H](O)[C@]1(C)O [Example 111, 6-(2,6-difluoro-4-(2-hydroxyethoxy)phenyl)-N-(4-((1R,3R,4R,5S)-3,4-dihydroxy-4,5-dimethylcyclohexyl)pyridin-3-yl)-5-fluoropicolinamide] | 38.7 nM | 0.83 nM | 538 nM | 173 nM
7 | C[C@H]1C[C@@H](c2ccncc2NC(=O)c2ccc(F)c(-c3c(F)cc(OCC(F)(F)F)cc3F)n2)C[C@@H](N)[C@]1(C)O [Example 118, N-(4-((1R,3R,4R,5S)-3-amino-4-hydroxy-4,5-dimethylcyclohexyl)pyridin-3-yl)-6-(2,6-difluoro-4-(2,2,2-trifluoroethoxy)phenyl)-5-fluoropicolinamide] | 1.61 nM | 0.07 nM | 539 nM | 3.57 nM
8 | C[C@H]1C[C@@H](c2ccncc2NC(=O)c2ccc(F)c(-c3c(F)cc(COC4CCOCC4)cc3F)n2)C[C@@H](N)[C@]1(C)O [Example 92, N-(4-((1R,3R,4R,5S)-3-amino-4-hydroxy-4,5-dimethylcyclohexyl)pyridin-3-yl)-6-(2,6-difluoro-4-((tetrahydro-2H-pyran-4-yloxy)methyl)phenyl)-5-fluoropicolinamide] | 2.2 nM | 0.09 nM | 91 nM | 3.89 nM
9 | C[C@@H]1C[C@H](c2ccncc2NC(=O)c2ccc(F)c(-c3c(F)cc(C4(O)COC4)cc3F)n2)C[C@H](O)[C@@]1(C)O [Example 75] | 5900 nM | 39.1 nM | 5780 nM | 8640 nM
10 | C[C@H]1C[C@@H](c2ccncc2NC(=O)c2ccc(F)c(-c3c(F)cc(OCC4CCOCC4)cc3F)n2)C[C@@H](N)[C@]1(C)O [Example 101, N-(4-((1R,3R,4R,5S)-3-amino-4-hydroxy-4,5-dimethylcyclohexyl)pyridin-3-yl)-6-(2,6-difluoro-4-((tetrahydro-2H-pyran-4-yl)methoxy)phenyl)-5-fluoropicolinamide] | 0.85 nM | 0.04 nM | 334 nM | 2.21 nM
11 | COCCOc1cc(F)c(-c2nc(C(=O)Nc3cnccc3[C@H]3C[C@@H](O)[C@](C)(O)[C@@H](C)C3)ccc2F)c(F)c1 [Example 107, 6-(2,6-difluoro-4-(2-methoxyethoxy)phenyl)-N-(4-((1R,3R,4R,5S)-3,4-dihydroxy-4,5-dimethylcyclohexyl)pyridin-3-yl)-5-fluoropicolinamide] | 74.2 nM | 0.89 nM | 3180 nM | 253 nM
12 | C[C@H]1C[C@@H](c2ccncc2NC(=O)c2ccc(F)c(-c3c(F)cc(C4(O)CCCC4)cc3F)n2)C[C@@H](O)[C@]1(C)O [Example 80, 6-(2,6-difluoro-4-(1-hydroxycyclopentyl)phenyl)-N-(4-((1R,3R,4R,5S)-3,4-dihydroxy-4,5-dimethylcyclohexyl)pyridin-3-yl)-5-fluoropicolinamide] | 55 nM | 0.15 nM | 169 nM | 126 nM
13 | C[C@H]1C[C@@H](c2ccncc2NC(=O)c2nc(-c3c(F)cccc3F)c(F)cc2N)C[C@@H](N)[C@]1(C)O [Example 147, 3-amino-N-(4-((1R,3R,4R,5S)-3-amino-4-hydroxy-4,5-dimethylcyclohexyl)pyridin-3-yl)-6-(2,6-difluorophenyl)-5-fluoropicolinamide] | 0.53 nM | 0.04 nM | 32 nM | 2.37 nM
14 | C[C@@H]1C[C@H](c2ccncc2NC(=O)c2ccc(F)c(-c3c(F)cc(OC4CCOCC4)cc3F)n2)C[C@H](O)[C@@]1(C)O [Example 96, 6-(2,6-difluoro-4-(tetrahydro-2H-pyran-4-yloxy)phenyl)-N-(4-((1S,3S,4S,5R)-3,4-dihydroxy-4,5-dimethylcyclohexyl)pyridin-3-yl)-5-fluoropicolinamide] | 2620 nM | 18.7 nM | > 10000 nM | 8720 nM
15 | CC(C)Oc1cc(F)c(-c2nc(C(=O)Nc3cnccc3[C@H]3C[C@@H](O)[C@](C)(O)[C@@H](C)C3)c(N)cc2F)c(F)c1 [Example 99, 3-amino-6-(2,6-difluoro-4-isopropoxyphenyl)-N-(4-((1R,3R,4R,5S)-3,4-dihydroxy-4,5-dimethylcyclohexyl)pyridin-3-yl)-5-fluoropicolinamide] | 45.5 nM | 0.96 nM | 1150 nM | 107 nM
16 | C[C@H]1C[C@@H](c2ccncc2NC(=O)c2nc(-c3c(F)cc(C4CCOCC4)cc3F)sc2N)C[C@@H](N)[C@]1(C)O [Example 85, 5-amino-N-(4-((1R,3R,4R,5S)-3-amino-4-hydroxy-4,5-dimethylcyclohexyl)pyridin-3-yl)-2-(2,6-difluoro-4-(tetrahydro-2H-pyran-4-yl)phenyl)thiazole-4-carboxamide] | 0.32 nM | 0.01 nM | 706 nM | 1.99 nM
